In the CheMixHub viscosity set:

Assay: xn = mol fraction of the nth substance listed

CCOC(=O)c1ccccc1 + C1COCCO1
viscosity [mPa·s], 101 kPa
Details	x1 = 0.0639	x1 = 0.1304	x1 = 0.1626	x1 = 0.2849	x1 = 0.3735	x1 = 0.4716	x1 = 0.5805	x1 = 0.7048	x1 = 0.8402
303.15 K	1.118	1.155	1.172	1.246	1.296	1.369	1.445	1.535	1.633
308.15 K	1.026	1.062	1.078	1.146	1.195	1.259	1.33	1.416	1.502
313.15 K	0.972	1.001	1.013	1.069	1.108	1.16	1.214	1.279	1.348

O=C(O)/C=C\C(=O)O + C[N+](C)(C)CCO.[Cl-]
viscosity [mPa·s], 101.3 kPa
Details	293.2 K	303.2 K	313.2 K
x2 = 0.49	–	8065	4196
x2 = 0.597	7984	4891	2579
x2 = 0.669	4183	2672	1488

CC1CCCCC1 + CCCO
303.15 K, 101.33 kPa
Details	viscosity [mPa·s]
x1 = 0.0998	1.42
x1 = 0.2182	1.188
x1 = 0.4212	0.918
x1 = 0.576	0.777
x1 = 0.7398	0.677
x1 = 0.9	0.637

CCOC(=O)c1ccccc1 + COCCO
viscosity [mPa·s], 101 kPa
Details	x2 = 0.1045	x2 = 0.199	x2 = 0.2979	x2 = 0.4016	x2 = 0.5007	x2 = 0.6025	x2 = 0.6973	x2 = 0.7982	x2 = 0.8977
298.15 K	1.883	1.824	1.803	1.757	1.774	1.752	1.773	1.761	1.783
303.15 K	1.703	1.65	1.631	1.587	1.598	1.581	1.592	1.581	1.602
308.15 K	1.55	1.501	1.48	1.441	1.448	1.431	1.439	1.431	1.444

C1=CCCCC1 + C1COCCO1
303.15 K, 101 kPa
Details	viscosity [mPa·s]
x1 = 0.1067	0.932
x1 = 0.2617	0.833
x1 = 0.3551	0.789
x1 = 0.4267	0.754
x1 = 0.4787	0.734
x1 = 0.5637	0.702
x1 = 0.6603	0.668
x1 = 0.7706	0.634
x1 = 0.8678	0.606

CC1CCCCC1 + CC(C)O
viscosity [mPa·s], 100 kPa
Details	x1 = 0.081	x1 = 0.1601	x1 = 0.2401	x1 = 0.35	x1 = 0.44	x1 = 0.5602	x1 = 0.65	x1 = 0.7401	x1 = 0.8501	x1 = 0.9403
293.15 K	1.88	1.47	1.17	0.89	0.78	0.72	0.73	0.75	0.77	0.76
298.15 K	1.65	1.33	1.08	0.87	0.76	0.71	0.7	0.7	–	0.71
303.15 K	–	1.18	0.98	0.81	0.73	0.7	0.69	0.68	0.68	0.67
308.15 K	1.26	1.05	0.89	0.74	0.67	0.64	0.63	0.63	0.64	0.62
313.15 K	1.1	0.92	0.79	0.65	0.6	0.58	0.57	0.58	0.59	0.6
318.15 K	0.97	0.82	0.7	0.6	0.55	0.54	0.54	0.55	0.56	0.55
323.15 K	0.84	0.69	0.58	0.49	0.46	0.46	0.47	0.49	0.51	0.52

CCOC(C)(C)C + CCCCOCCO
viscosity [mPa·s], 101 kPa
Details	293.15 K	298.15 K	303.15 K
x1 = 0.0499	2.901	2.558	2.239
x1 = 0.1	2.603	2.314	2.038
x1 = 0.1511	2.336	2.092	1.85
x1 = 0.2007	2.107	1.899	1.687
x1 = 0.2489	1.91	1.731	1.545
x1 = 0.2999	1.725	1.573	1.412
x1 = 0.3421	1.589	1.455	1.312
x1 = 0.4018	1.417	1.305	1.186
x1 = 0.45	1.296	1.198	1.094
x1 = 0.5002	1.183	1.097	1.007
x1 = 0.5521	1.079	1.004	0.925
x1 = 0.5998	0.993	0.926	0.857
x1 = 0.6538	0.906	0.847	0.786
x1 = 0.6987	0.84	0.788	0.734
x1 = 0.7501	0.773	0.727	0.679
x1 = 0.8	0.714	0.673	0.632
x1 = 0.8492	0.661	0.626	0.59
x1 = 0.8997	0.612	0.581	0.55
x1 = 0.9493	0.57	0.541	0.514

CCOC(=O)[C@@H](O)[C@H](O)C(=O)OCC + CC(C)CO
viscosity [mPa·s], 101 kPa
Details	x1 = 0.1	x1 = 0.2	x1 = 0.3001	x1 = 0.3999	x1 = 0.5	x1 = 0.6001	x1 = 0.6989	x1 = 0.7998	x1 = 0.8994
293.15 K	5.103	7.263	10.49	15.86	24.25	34.35	50.55	88.25	140.9
298.15 K	4.28	5.98	8.485	12.38	18.34	25.34	36.11	59.79	91.12
303.15 K	3.601	4.928	6.848	9.831	14.09	19.07	26.5	42.09	62.16
308.15 K	3.052	4.111	5.611	7.889	11.06	14.71	19.99	30.63	43.93
313.15 K	2.607	3.444	4.609	6.39	8.797	11.53	15.38	22.88	31.96
318.15 K	2.249	2.956	3.912	5.322	7.201	9.298	12.19	17.64	24.09
323.15 K	1.973	2.567	3.358	4.497	5.991	7.637	9.865	13.94	18.67

O=C(O)/C=C\C(=O)O + O
viscosity [mPa·s], 101.32 kPa
Details	x1 = 0.0171	x1 = 0.03648	x1 = 0.06231	x1 = 0.0943	x1 = 0.145
298.15 K	1.092	1.349	1.775	2.459	–
313.15 K	0.792	0.968	1.255	1.702	2.54

Cc1cccc([N+](=O)[O-])c1 + C1CCCCC1
303.15 K, 101.33 kPa
Details	viscosity [mPa·s]
x1 = 0.206	0.93
x1 = 0.38	1.03
x1 = 0.593	1.25
x1 = 0.801	1.54

CC1CCCCC1 + CC(C)CC(C)(C)C
viscosity [mPa·s], 101 kPa
Details	298.15 K	303.15 K	308.15 K
x1 = 0.1032	–	0.462	–
x1 = 0.105	–	0.466	0.438
x1 = 0.201	–	0.478	–
x1 = 0.221	–	0.4798	–
x1 = 0.3024	0.522	0.492	0.462
x1 = 0.399	–	0.5062	–
x1 = 0.4039	0.539	0.508	0.476
x1 = 0.4974	–	0.524	–
x1 = 0.4998	0.556	0.523	0.491
x1 = 0.5998	–	0.5431	–
x1 = 0.6064	0.577	0.543	0.509
x1 = 0.6991	0.597	0.562	0.526
x1 = 0.7018	–	0.5656	–
x1 = 0.8004	0.62	0.583	0.546
x1 = 0.8012	–	0.5892	–
x1 = 0.8991	–	0.6154	–
x1 = 0.9007	0.648	0.608	0.568

CCOC(=O)c1ccccc1 + CC(=O)O
298.15 K, 101 kPa
Details	viscosity [mPa·s]
x2 = 0.1041	1.948
x2 = 0.2129	1.874
x2 = 0.3045	1.797
x2 = 0.3882	1.727
x2 = 0.475	1.651
x2 = 0.5822	1.538
x2 = 0.6826	1.446
x2 = 0.7956	1.322
x2 = 0.9132	1.202

O=C(Nc1ccccc1)c1ccccc1 + c1ccncc1
298.15 K, 101 kPa
Details	viscosity [mPa·s]
x1 = 0.0224	1.027
x1 = 0.0382	1.121
x1 = 0.05536	1.252

CCOC(=O)[C@@H](O)[C@H](O)C(=O)OCC + CCCO
viscosity [mPa·s], 101 kPa
Details	x1 = 0.1	x1 = 0.2	x1 = 0.2999	x1 = 0.3999	x1 = 0.5001	x1 = 0.5999	x1 = 0.7	x1 = 0.7996	x1 = 0.9
293.15 K	3.256	5.15	8.204	13.19	21	32.75	52.88	84.67	135.1
298.15 K	2.832	4.359	6.759	10.53	16.09	24.37	37.73	57.79	88.2
303.15 K	2.467	3.7	5.586	8.415	12.64	18.48	27.67	40.91	60.18
308.15 K	2.164	3.17	4.671	6.886	10.06	14.35	20.86	29.93	42.64
313.15 K	1.913	2.731	3.92	5.661	8.093	11.3	16.05	22.45	31.15
318.15 K	1.694	2.385	3.38	4.782	6.694	9.164	12.71	17.37	23.52
323.15 K	1.52	2.108	2.94	4.092	5.623	7.561	10.28	13.77	18.27

[Li+].[O-][Cl+3]([O-])([O-])[O-] + C1COCO1
101 kPa, x1 = 0.07
Details	viscosity [mPa·s]
303.15 K	1
308.15 K	0.93
313.15 K	0.89
318.15 K	0.85
323.15 K	0.81

O=C(C=Cc1ccccc1)c1ccccc1 + CCO
viscosity [mPa·s], 101 kPa
Details	x1 = 0.000144	x1 = 0.000288	x1 = 0.0005755	x1 = 0.00115	x1 = 0.002298	x1 = 0.004586
298.15 K	1.102	1.141	1.216	1.256	1.283	1.356
303.15 K	1.01	1.049	1.115	1.156	1.181	1.255
308.15 K	0.9181	0.9561	1.014	1.056	1.079	1.154

CC1CCCCC1 + CCCCCCCO
Details	viscosity [mPa·s]
298.15 K, 101 kPa, x1 = 0.111	4.608
298.15 K, 101 kPa, x1 = 0.2237	3.546
298.15 K, 101 kPa, x1 = 0.389	2.371
298.15 K, 101 kPa, x1 = 0.6878	1.192
298.15 K, 101 kPa, x1 = 0.8281	0.89
298.15 K, 101 kPa, x1 = 0.9181	0.757
303.15 K, 101.33 kPa, x2 = 0.1208	0.7838
303.15 K, 101.33 kPa, x2 = 0.211	0.9181
303.15 K, 101.33 kPa, x2 = 0.3517	1.174
303.15 K, 101.33 kPa, x2 = 0.4355	1.364
303.15 K, 101.33 kPa, x2 = 0.5214	1.599
303.15 K, 101.33 kPa, x2 = 0.608	1.899
303.15 K, 101.33 kPa, x2 = 0.718	2.394
303.15 K, 101.33 kPa, x2 = 0.7991	2.87
303.15 K, 101.33 kPa, x2 = 0.8894	3.56
